Data: PMC12671168, “The signal peptide of staphylococcal protein A alters the multimeric states of PepV” (Microbiology Spectrum, 2025)
Values joined by “and” are separate entries in the source; they are usually repeats but may differ in a detail not shown here. Identical values can stand only once. Peptide text beside a SMILES is read from it.

Key:
PepVEpi = target: T1, PepVEpi (Staphylococcus epidermidis, UniProt Q5HNF9); test: Cd-ninhydrin colorimetric dipeptidase assay, […] nm; type: biochemical; conditions: 25 mM Tris pH 7.5, 2 mM MnCl2, 5 mM TCEP, 37 °C
T1 construct: gene SERP1310; purified ortholog, probably His-tagged from E. coli BL21(DE3); multimers beyond dimer
T1 sequence (Q5HNF9 1-469): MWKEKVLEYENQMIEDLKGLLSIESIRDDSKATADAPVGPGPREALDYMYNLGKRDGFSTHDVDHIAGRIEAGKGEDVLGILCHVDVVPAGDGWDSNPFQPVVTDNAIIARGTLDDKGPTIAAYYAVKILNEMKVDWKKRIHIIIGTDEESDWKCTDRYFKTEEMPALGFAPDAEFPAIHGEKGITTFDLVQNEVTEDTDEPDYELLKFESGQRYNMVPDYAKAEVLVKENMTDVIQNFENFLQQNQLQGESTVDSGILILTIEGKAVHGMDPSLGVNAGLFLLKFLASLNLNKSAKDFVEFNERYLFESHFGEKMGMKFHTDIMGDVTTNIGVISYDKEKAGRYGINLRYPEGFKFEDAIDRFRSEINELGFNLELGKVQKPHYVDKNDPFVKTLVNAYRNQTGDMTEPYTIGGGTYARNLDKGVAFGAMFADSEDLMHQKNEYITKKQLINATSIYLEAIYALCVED

PepVSpn = target: T2, PepVSpn (Streptococcus pneumoniae, UniProt A0A0H2UP69); test: Cd-ninhydrin colorimetric dipeptidase assay, […] nm; type: biochemical; conditions: 25 mM Tris pH 7.5, 2 mM MnCl2, 5 mM TCEP, 37 °C
T2 construct: gene pepV; purified ortholog, probably His-tagged from E. coli BL21(DE3); dimer only
T2 sequence (A0A0H2UP69 1-466): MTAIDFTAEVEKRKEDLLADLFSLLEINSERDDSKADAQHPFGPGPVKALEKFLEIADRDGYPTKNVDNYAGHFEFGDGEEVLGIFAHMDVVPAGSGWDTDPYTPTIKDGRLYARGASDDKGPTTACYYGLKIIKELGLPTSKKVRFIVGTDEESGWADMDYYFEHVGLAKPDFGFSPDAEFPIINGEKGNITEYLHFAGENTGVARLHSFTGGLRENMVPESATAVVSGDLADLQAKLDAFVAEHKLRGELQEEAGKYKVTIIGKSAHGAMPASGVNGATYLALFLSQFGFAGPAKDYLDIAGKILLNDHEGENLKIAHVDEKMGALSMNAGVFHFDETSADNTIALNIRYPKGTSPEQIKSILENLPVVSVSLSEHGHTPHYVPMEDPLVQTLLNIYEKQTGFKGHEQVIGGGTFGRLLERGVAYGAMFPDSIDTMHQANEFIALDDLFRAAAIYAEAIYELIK

[1] = target: T3, PepV (staphylococcal PepV) (Staphylococcus aureus, UniProt Q5HF23); test: Cd-ninhydrin colorimetric dipeptidase assay, […] nm; type: biochemical; conditions: 25 mM Tris pH 7.5, 2 mM MnCl2, 5 mM TCEP, 37 °C
T3 construct: gene SACOL1801; His-tagged (pSY273, pET16b-H6-pepV), E. coli BL21(DE3), Ni-NTA; dimer, tetramer and higher oligomers
T3 sequence (Q5HF23 1-469): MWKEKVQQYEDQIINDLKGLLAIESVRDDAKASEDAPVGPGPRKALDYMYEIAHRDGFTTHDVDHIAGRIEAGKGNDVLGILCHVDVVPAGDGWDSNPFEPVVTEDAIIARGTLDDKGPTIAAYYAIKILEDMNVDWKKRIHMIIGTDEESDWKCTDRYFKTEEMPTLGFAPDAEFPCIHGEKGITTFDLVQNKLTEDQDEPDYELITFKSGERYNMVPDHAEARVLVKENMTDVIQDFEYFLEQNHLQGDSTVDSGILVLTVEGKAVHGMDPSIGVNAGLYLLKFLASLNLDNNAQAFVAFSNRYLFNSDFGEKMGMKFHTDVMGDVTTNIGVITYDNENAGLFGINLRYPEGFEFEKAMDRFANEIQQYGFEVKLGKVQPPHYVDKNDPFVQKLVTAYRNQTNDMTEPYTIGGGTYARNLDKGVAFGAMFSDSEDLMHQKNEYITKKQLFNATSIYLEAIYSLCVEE

PepVBsub = target: T4, PepVBsub (Bacillus subtilis, UniProt O34944); test: Cd-ninhydrin colorimetric dipeptidase assay, […] nm; type: biochemical; conditions: 25 mM Tris pH 7.5, 2 mM MnCl2, 5 mM TCEP, 37 °C
T4 construct: gene ytjP; purified ortholog, probably His-tagged from E. coli BL21(DE3); multimers beyond dimer
T4 sequence (O34944 1-463): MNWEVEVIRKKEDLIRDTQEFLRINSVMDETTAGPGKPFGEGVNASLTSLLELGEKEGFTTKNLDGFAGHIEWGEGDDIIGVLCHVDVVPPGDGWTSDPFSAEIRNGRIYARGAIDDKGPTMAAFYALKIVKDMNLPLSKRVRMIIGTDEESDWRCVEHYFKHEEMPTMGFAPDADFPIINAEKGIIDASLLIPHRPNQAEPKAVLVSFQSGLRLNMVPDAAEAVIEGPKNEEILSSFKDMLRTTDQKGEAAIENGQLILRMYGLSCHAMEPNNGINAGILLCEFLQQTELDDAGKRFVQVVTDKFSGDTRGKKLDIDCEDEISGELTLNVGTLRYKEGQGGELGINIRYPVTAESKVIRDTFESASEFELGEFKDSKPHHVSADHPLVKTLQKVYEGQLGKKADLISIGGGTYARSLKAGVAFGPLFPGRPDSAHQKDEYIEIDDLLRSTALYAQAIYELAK

[2] = target: PepV (Staphylococcus aureus), recombinant His-PepV (Staphylococcus aureus); test: native gel or EMSA; purified proteins, alone or mixed with peptide or precursor (0.5 µM PepV, 10-fold molar excess or rising concentrations of SpA SP); NativePAGE 4%-16% gel, 5 mA, 4°C, silver stain
[3] = target: PepV (Staphylococcus aureus), recombinant His-PepV (Staphylococcus aureus); test: SEC; purified PepV alone or incubated with a 10-fold molar excess of peptide; Agilent SEC-3 or TSKgel Super2000 on HPLC; 0.5 M HEPES pH 7.6, 150 mM NaCl; 0.35 mL/min; absorbance at 280 nm
[4] = target: the molecule itself; test: native gel or EMSA; purified proteins, alone or mixed with peptide or precursor (0.5 µM PepV, 10-fold molar excess or rising concentrations of SpA SP); NativePAGE 4%-16% gel, 5 mA, 4°C, silver stain

In the case of `C[C@H](N)C(=O)N[C@@H](C)C(=O)O` [Ala-Ala] (H-Ala-Ala-OH), the “Cd-ninhydrin colorimetric dipeptidase assay, 507 nm” value (PepVEpi) is reported as “performed a colorimetric ninhydrin dipeptidase assay using Ala-Ala as the substrate”, the “Cd-ninhydrin colorimetric dipeptidase assay, 507 nm” value (PepVSpn) is reported as “performed a colorimetric ninhydrin dipeptidase assay using Ala-Ala as the substrate” and the “Cd-ninhydrin colorimetric dipeptidase assay, 507 nm” value [1] is reported as “we assessed the enzymatic activity of PepV in the presence of the SpA SP”. For the same molecule, the “Cd-ninhydrin colorimetric dipeptidase assay, 507 nm” value (PepVBsub) was “performed a colorimetric ninhydrin dipeptidase assay using Ala-Ala as the substrate”.

With “PepV (Staphylococcus aureus), recombinant His-PepV (enzyme)” the stoichiometry N [2] was 2 and 4 and the stoichiometry N [3] was 2 and 4.

“SpA SP (signal peptide of staphylococcal protein A)” was tested, and the concentration of SpA SP at which the tetrameric and oligomeric PepV species diminish [2] was 300 nM.

B1: E. coli PepT (enzyme, Escherichia coli, UniProt P29745 1-408, looked up)
chain: MDKLLERFLNYVSLDTQSKAGVRQVPSTEGQWKLLHLLKEQLEEMGLINVTLSEKGTLMATLPANVPGDIPAIGFISHVDTSPDCSGKNVNPQIVENYRGGDIALGIGDEVLSPVMFPVLHQLLGQTLITTDGKTLLGADDKAGIAEIMTALAVLQQKKIPHGDIRVAFTPDEEVGKGAKHFDVDAFDARWAYTVDGGGVGELEFENFNAASVNIKIVGNNVHPGTAKGVMVNALSLAARIHAEVPADESPEMTEGYEGFYHLASMKGTVERADMHYIIRDFDRKQFEARKRKMMEIAKKVGKGLHPDCYIELVIEDSYYNMREKVVEHPHILDIAQQAMRDCDIEPELKPIRGGTDGAQLSFMGLPCPNLFTGGYNYHGKHEFVTLEGMEKAVQVIVRIAELTAQRK
notes: PepT of Escherichia coli, found with Foldseek as a protein structurally similar to PepV; The methods speak of recombinant His-tagged proteins from E. coli BL21(DE3); the construct of PepT is not described; also called Esherichia coli PepT; source: purified
B1 was tested, and the “stoichiometry N” value [4] was 4.
